The source of these data is paper PMC12745361, “Dysadherin/YAP axis fuels stem plasticity and immune escape in liver cancer” (Signal Transduction and Targeted Therapy, 2025).

Common to all, as to type: cell-based, human
For assay [1], the system named is PLC/PRF/5 cells. Kind of assay: Immunoblot of FAK/YAP signalling and pluripotency factors in dysadherin-OE PLC/PRF/5 cells. Here is the method:
(§1) Cells were lysed in RIPA buffer for 20 minutes on ice, and protein concentrations were measured using a bicinchoninic acid (BCA) assay kit (Thermo Fisher Scientific). The proteins were denatured with SDS (Sigma‒Aldrich) and by boiling at 95 °C for 5 minutes. Equal amounts (10 µg) were resolved by 10% SDS-PAGE and transferred to PVDF membranes (Millipore, Burlington, MA, USA). The membranes were blocked with 10% bovine serum albumin (Sigma‒Aldrich) and incubated overnight at 4 °C with the indicated primary antibodies. […] After washing, membranes were incubated with HRP-conjugated secondary antibodies, and signals were developed using SuperSignal™ West Dura Substrate (Thermo Fisher Scientific) and visualized using a Digital 8 Imaging System (ProteinSimple, San Jose, CA, USA). The antibodies used for immunoblot analyses are listed in Supplementary Table S3.

Assay [2] concerns PLC/PRF/5 cells. Nature of the assay: Sorafenib resistance (viability, Annexin V/PI apoptosis) in dysadherin-OE PLC/PRF/5 cells. Conditions: dysadherin-OE PLC/PRF/5 cells with sorafenib. The method, then:
The rate of cell apoptosis was quantified using apoptosis assays performed with an Annexin V-Fluorescein isothiocyanate (FITC) Apoptosis Detection Kit I. (BD Biosciences, San Jose, CA, USA). Cells were washed twice with cold PBS to yield single-cell suspensions at a concentration of 1×10⁶ cells/mL. The suspension was transferred to a tube containing 5 µL of FITC, annexin V, and propidium iodide (PI). After gentle vortexing, the mixture was incubated at room temperature for 15 min in the dark. After incubation, 400 µL of 1 x binding buffer was added to each sample prior to flow cytometry analysis. FACS analysis was performed using a BD AccuriTM flow cytometer (BD Biosciences). FACS data were analyzed using FlowJo software (TreeStar, San Carlos, CA, USA) as described in our previous report.

Assay [3] deals with PLC/PRF/5 cells. Nature of the assay: Immunosuppressive gene expression in dysadherin-OE PLC/PRF/5 cells. The method, then: Total RNA was isolated using RNAiso reagent (Takara, Shiga, Japan), and purity was confirmed by 260/280 and 260/230 ratios. cDNA templates were synthesized from 0.5 μg of total RNA using the PrimeScriptTM 1st strand cDNA Synthesis Kit (Takara) with random primers. qPCR was performed using Power SYBR Green PCR Master Mix and Step-One Real-time PCR systems (Applied Biosystems, Foster City, CA, USA). The primers used are listed in Supplementary Table S2.

For assay [4], the system named is Jurkat T cells co-cultured with PLC/PRF/5 cells. Kind of assay: Jurkat T-cell co-culture assay (CD69 flow cytometry, IFN-γ ELISA). The note with it: Jurkat cells co-cultured with dysadherin-OE PLC/PRF/5 cells, CD3/CD28 stimulation, 24 hours. The method, then: The rate of T-cell activation after co-culture with the HCC cells were evaluated by direct co-culture system. The assay was performed in 24-well plates. HCC cells (1x10^4) were seeded in the plates and cultured for 24 hours to allow attachment. The cells were transfected with or without YAP5SA and treated with or without verteporfin. Following 24 hours of treatment, the tumor cells were incubated for an additional 24 hours before introducing Jurkat cells (4x10^5). After 1hour of stabilization, T-cell activation was induced by adding soluble anti-CD3 (2 μg/mL, eBioscience, San Diego, CA, USA), soluble anti-CD28 (1 μg/mL, eBioscience), and anti-mouse Ig (5 μg/mL, Southern Biotech, Birmingham, AL, USA). After 24 hours of co-culture, the supernatant was collected for an IFN-γ ELISA assay, and Jurkat cells were harvested for FACS analysis to assess T-cell activation. The cells were stained with the PE-cy7 conjugated anti-CD69 antibody in FACS buffer for at least 1hour at 4 °C in the dark and analyzed on BD AccuriTM flow cytometer and data were processed using FlowJo software.
The concentration of IFN-γ in cell-free supernatants was measured using a Human IFN-γ ELISA Kit (R&D Systems, Minneapolis, MN, USA), following the manufacturer’s instructions.
For orientation: Flow cytometry measures light scatter and fluorescence of single cells or particles in a stream.

Assay [5] relates to PLC/PRF/5 cells. Kind of assay: Sphere formation and Aldefluor assays, dysadherin-OE PLC/PRF/5. Conditions: dysadherin-OE PLC/PRF/5 cells; sphere formation, Aldefluor, CSC gene expression. The method, then: The ALDH enzymatic activity of the cells was determined by ALDEFLUOR kit (Stem Cell Technologies, Vancouver, BC, Canada). Flow cytometric detection of cells expressing ALDH was performed. Diethylaminobenzaldehyde (DEAB), a specific ALDH inhibitor, was utilized to stain negative control cells.
To examine their self-renewal ability, cells were seeded at various densities in poly-HEMA-coated plates (Sigma‒Aldrich, St. Louis, MO, USA) under non-adherent, sphere–forming condition. After incubation, spheres were counted and measured (n = 3/group). Sphere viability was assessed using the CellTiter-Blue Cell Viability Assay (Sigma-Aldrich) according to the manufacturer’s instructions. Fluorescence was measured at 560 nm excitation and 590 nm emission using the Varioskan LUX multimode reader (Thermo Fisher Scientific, Waltham, MA, USA).

Another assay has as its system OCT4 promoter. Kind of assay: OCT4 promoter luciferase reporter assay. The note with it: dysadherin-OE PLC/PRF/5 cells, verteporfin 1.5 μmol/L, 24 h, normalized to β-galactosidase. Here is the method: Luciferase activity driven by the OCT4 promoter was measured using a reporter vector (GeneCopoeia, Rockville, MD, USA). For transfection, plasmid DNA, β-galactosidase control, and Lipofectamine (Sigma-Aldrich) were mixed at 1 μg:1 μg:2 μL in 300 μL of OptiMEM (Thermo Fisher Scientific, Waltham, MA, USA) medium per well. Following transfection, cells were treated with verteporfin (1.5 μmol/L) and incubated for 24 h, after which cell lysates were prepared. Luciferase readout was performed using Renilla luciferase assay system (Promega, Madison, WI, USA) and quantified with a SpectraMax L luminometer (Molecular Devices, San Jose, CA, USA). Relative luminescence values were normalized to β-galactosidase activity.

For assay [6], the system named is PLC/PRF/5 cells. Kind of assay: PD-L1 immunoblot in dysadherin-OE PLC/PRF/5 cells. The method, then:
as §1

The test system of assay [7] is PLC/PRF/5 cells. Nature of the assay: Clonogenic survival assay, dysadherin-OE PLC/PRF/5. The note with it: dysadherin-OE PLC/PRF/5 cells; 200 cells/well, 14 days, n = 3/group. The method, then:
A clonogenic assay was performed as previously described.[43],[44] Briefly, cells were seeded in 12-well plates (200 cells/well) and cultured for 14 days. Colonies >50 μm in diameter were counted after crystal violet staining (n = 3/group).

Consider `COc1ccc([C@H](CC(=O)O)N2CCN(CCCc3ccc4c(n3)NCCC4)C2=O)cn1` [MK-0429], for which, in the assay on PLC/PRF/5 cells [1], the “dysadherin-induced increase in FAK phosphorylation” value is listed as “specifically suppressed”, the “dysadherin-induced increase in YAP activation” value is “specifically suppressed” and the “dysadherin-induced increase in pluripotency gene expression” value was “specifically suppressed”.
Regarding `CNC(=O)c1ccccc1Nc1cc(Nc2ccc(N3CCOCC3)cc2OC)ncc1C(F)(F)F` [PND-1186], in the assay on PLC/PRF/5 cells [1], the “dysadherin-induced increase in FAK phosphorylation” value is on record as “specifically suppressed”, the “dysadherin-induced increase in YAP activation” value is “specifically suppressed” and the “dysadherin-induced increase in pluripotency gene expression” value is recorded as “specifically suppressed”. In addition, the “dysadherin OE-induced suppression of LATS1/2 phosphorylation” value with PLC/PRF/5 cells [1] (treatment with a FAK inhibitor) was “reversed”.
For Verteporfin, the “dysadherin OE-induced resistance to sorafenib” value with PLC/PRF/5 cells [2] was “reversed”. The “expression of immunosuppressive genes” value in the assay on PLC/PRF/5 cells [3] is on record as “markedly reduced”. In assay [4], the “dysadherin OE-mediated suppression of CD69 upregulation and IFN-γ release” value is “reversed”. Besides, in the assay with PLC/PRF/5 cells [5], the CSC features entry was “suppressed”. In addition, the “OCT4 promoter activity increased by dysadherin OE” value in the assay on OCT4 promoter is “suppressed”. In the assay on PLC/PRF/5 cells [6], the “upregulation of PD-L1 expression by dysadherin OE” value is given as “reversed”. In addition, the YAP activity entry in the assay with PLC/PRF/5 cells [1] is “decreased”. In addition, in the assay on PLC/PRF/5 cells [1] (immunoblot), the “dysadherin OE-induced p-FAK, YAP activation and pluripotency markers” value is listed as “reversed these effects”. Further, the clonogenicity entry with PLC/PRF/5 cells [7] is on record as “suppressed”.
